How the values were obtained:
HCT-15 = assay: Cell cycle arrest, propidium iodide flow cytometry, HCT-15; format: cell-based, human
Description: 10^6 Cells of A549, HCT-15 and MCF-7 cell lines have been seeded in Petri dishes with RPMI-1640 medium. 24 h later, SDD has been dissolved in water at a concentration of 20 μM and was directly added to the culture medium. Contact was maintained for 72 h. Then, cells have been detached by trypsinization, collected and rinsed by PBS and counted on hemocytometer. Cells were centrifuged for 5 min at 1500 rpm, then resuspended in a defined volume of PBS to obtain 2.5×10^6 cell/mL. 100 μL of cell suspension was digested to nuclei by trypsin for 10 min. Then, a solution containing trypsin inhibitor and RNAse was added to cell suspension and left for 10 min. Finally, cells were stained by propidium iodide and were analysed by flow-cytometry apparatus. Distribution of cells among the different phases of the cycle was determined by the procedure disclosed in: A detergent-trypsin method for preparation of nuclei for flow cytometric DNA analysis. Vindelov, L.; Christensen, I.; Nissen, N.; Cytometry (1983), 3, 323-327.
• G0G1: cell in the phase of GOG1 • G2M: cells in the phase of G2M • S: cells in the phase of DNA synthesis • Sub G1: apoptotic cells • SUP G2M: diploidic cells

[1] = biological target: T1, purified human recombinant Top 1 (Homo sapiens, UniProt P11387); assay: Top1-catalysed cleavage assay; format: biochemical; conditions: 1, 10, 100 and 1000 μM
T1 sequence (P11387 1-765): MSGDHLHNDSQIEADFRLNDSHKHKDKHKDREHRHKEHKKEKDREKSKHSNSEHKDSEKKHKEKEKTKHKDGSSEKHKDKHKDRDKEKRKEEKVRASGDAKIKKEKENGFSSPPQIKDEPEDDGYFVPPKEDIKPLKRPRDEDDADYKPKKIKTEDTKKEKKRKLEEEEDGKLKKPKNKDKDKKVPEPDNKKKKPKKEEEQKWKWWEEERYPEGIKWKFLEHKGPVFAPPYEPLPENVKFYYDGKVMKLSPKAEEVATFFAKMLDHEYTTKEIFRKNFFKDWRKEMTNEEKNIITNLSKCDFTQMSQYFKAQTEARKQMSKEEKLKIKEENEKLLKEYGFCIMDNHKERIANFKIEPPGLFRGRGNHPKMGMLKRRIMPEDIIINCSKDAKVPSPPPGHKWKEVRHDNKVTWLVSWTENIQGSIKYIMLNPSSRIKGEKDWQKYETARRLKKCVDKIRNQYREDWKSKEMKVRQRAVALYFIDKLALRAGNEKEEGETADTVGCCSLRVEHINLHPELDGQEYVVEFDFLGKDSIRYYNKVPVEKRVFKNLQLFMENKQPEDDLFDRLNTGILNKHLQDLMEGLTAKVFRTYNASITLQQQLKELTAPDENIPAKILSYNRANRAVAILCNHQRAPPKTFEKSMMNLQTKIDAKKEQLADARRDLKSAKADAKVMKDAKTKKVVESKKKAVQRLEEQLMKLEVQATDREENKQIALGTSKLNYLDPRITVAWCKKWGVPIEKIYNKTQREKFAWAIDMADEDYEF
Description: The influence of SDD has been studied at various concentrations on Top 1 cleavage activity in comparison with Camptothecin.
The method consists in an incubation of 3′-labeled oligonucleotides with enzyme Top1, or Top 1+CPT or Top 1-SDD.
3′-end labelling of the scissile strand was performed as described previously in the publication: Conversion of topoisomerase I cleavage complexes on the leading strand of ribosomal DNA into 5′-phosphorylated DNA double-strand breaks by replication runoff. Pommier, Y.; Jenkins, J.; Kohlhagen, G.; and Leteurtre, F.; Mutat. Res. (1995), 337, 135-145.
Thus, 10 pmol of […] was incubated in labelling buffer (100 mM potassium cacodylate, pH 7.2, 2 mM CaCl2, 200 μM DTT) for 1 h at 37° C.
The reaction mixture was passed through a G-25 Sephadex spin column by centrifugation at 1000 g for 5 min to remove the excess of unincorporated nucleotide.
The 3′-labeled oligonucleotide was mixed with the same amount of unlabeled complementary strand in annealing buffer (i.e. 10 mM Tris-HCl, pH 7.8, […]) and annealed by heating the reaction mixture for 5 min at 95° C. followed by slow cool down at room temperature. […]
Imaging and quantification of the cleavage products were performed using a Typhoon Phosphorimager (Amersham Biosciences) as described in Inhibition of Topoisomerase I cleavage activity by thiol-reactive compounds. […]

female Swiss mice = assay: Acute systemic toxicity, main test, intravenous; format: in vivo, mouse
Description: The SDD was administered by intravenous route at the dose of 50 mg/kg body weight to a group of 5 female Swiss mice. The experimental protocol was established from the International standard NF EN ISO 10993-11 concerning biological evaluation of medical devices: “Tests for systemic toxicity”.

[2] = HCT-15, SDD 20 μM, 72 h, percentage of total cell population
[3] = 50 mg/kg iv, 1 hour after administration

## CCN1C[C@]2(COC)[C@H](O)C[C@H](OC)[C@]34C1[C@H]([C@H](OC)[C@H]23)[C@]1(OC(=O)CCCCCCC(=O)O[C@]23[C@H]5[C@@H](OC(=O)c6ccccc6)[C@](O)(C[C@H]5[C@@]56C7[C@@H]2[C@H](OC)[C@@H]5[C@](COC)(CN7CC)[C@H](O)C[C@@H]6OC)[C@@H](OC)[C@@H]3O)[C@H]2[C@@H](OC(=O)c3ccccc3)[C@](O)(C[C@H]24)[C@@H](OC)[C@@H]1O [SDD, bis[O-(14-benzoylaconine-8-yl)]-suberate]
HCT-15; HCT-15, 20 μM
  accumulation of cells in the G2M and S phases: significant accumulation
  numbers of apoptotic cells (Sub G1): significantly increased
HCT-15; HCT-15, SDD 20 μM
  increase of number of cells arrested at S phase as compared to control: more than 100%
  increase of number of cells in the G2M phase as compared to control: 75%
HCT-15; [2]
  ALL %: 100%
  G0G1 %: 30.67%
  G2M %: 15.72%
  S %: 26.35%
  SUP G2M % (diploidic cells): 2.59%
  SubG1 % (apoptotic cells): 23.65%
HCT-15; HCT-15, SDD, survival cells
  Percentage of survival cells, G0G1 %: 42.16%
  Percentage of survival cells, G2M %: 21.61%
  Percentage of survival cells, S %: 36.23%
[1]
  Top 1 inhibitory activity compared with camptothecin: no Top 1 inhibitory activity
Female Swiss mice; 50 mg/kg body weight iv, 5 female Swiss mice
  mortality: No mortality
Female Swiss mice; [3]
  decrease of the righting reflex (animals affected): 2/5
  decrease of the spontaneous activity (animals affected): 5/5
  eyes partly closed (animals affected): 2/5
Female Swiss mice; 50 mg/kg iv, end of the study
  macroscopical examination: necrosis at the level of the tail (animals affected): 3/5
Female Swiss mice; 50 mg/kg iv, first day to fourteenth day
  local finding at the tails: oedema at the level of the tails
Female Swiss mice; 50 mg/kg iv, throughout the study
  body weight evolution: remained normal
Female Swiss mice; mouse, intravenous route
  LD50: above 50 mg/kg of body weight
